Assay results taken from publication PMC11205865, “Unlocking the distinctive enzymatic functions of the early plant biomass deconstructive genes in a brown rot fungus by cell-free protein expression” (Applied and Environmental Microbiology, 2024).

How the values were obtained:
[1] = tested on: T1, benzoquinone reductase (BQR), Pospl1|124517; test: NADPH consumption during […],6-DMBQ reduction; type: cell-based, Rhodonia placenta; settings: 30–570 µM 2,6-DMBQ; NADPH co-substrate; FMN cofactor; crude cell-free mixture
T1 construct: synthetic CDS in pEU-E01-MCS, wheat germ cell-free expression, crude translation mixture (sample S2), predicted 25 kDa, intracellular, no tag stated

[2] = tested on: T2, heme-thiolate peroxidase (HTP), Pospl1|61079; test: ABTS oxidation with H2O2; type: cell-based, Rhodonia placenta; settings: 50–900 µM ABTS; H2O2 as oxidant; crude cell-free mixture with hemin and nanodiscs
T2 construct: synthetic CDS in pEU-E01-MCS, wheat germ cell-free expression with nanodiscs and hemin (S1b), crude mixture, predicted 32 kDa
Description: ABTS oxidation with H2O2 on heme-thiolate peroxidase (HTP), Pospl1|61079 | Km and Vmax values for enzymes HTP, ABF, BQR, and FRD were determined

Km [1] [µM] | Structure (SMILES) | Km [2] [µM]
214 | COC1=CC(=O)C=C(OC)C1=O [2,6-DMBQ, 2,6-dimethoxy-1,4-benzoquinone] | 
 | CCn1c(=NN=c2sc3cc(S(=O)(=O)O)ccc3n2CC)sc2cc(S(=O)(=O)O)ccc21 [ABTS] | 142
